Legend:
full length human TREX1 = biological target: T1, full length human TREX1 (Homo sapiens, UniProt Q9NSU2); experiment: hTREX1 Biochemical Assay (fluorescence, dsDNA substrate degradation); conditions: biochemical, read-out: hTREX1 IC50
T1 construct: N-terminally His-Tev tagged full length human TREX1; made in house; host or cells: E. coli
T1 sequence (Q9NSU2 1-314): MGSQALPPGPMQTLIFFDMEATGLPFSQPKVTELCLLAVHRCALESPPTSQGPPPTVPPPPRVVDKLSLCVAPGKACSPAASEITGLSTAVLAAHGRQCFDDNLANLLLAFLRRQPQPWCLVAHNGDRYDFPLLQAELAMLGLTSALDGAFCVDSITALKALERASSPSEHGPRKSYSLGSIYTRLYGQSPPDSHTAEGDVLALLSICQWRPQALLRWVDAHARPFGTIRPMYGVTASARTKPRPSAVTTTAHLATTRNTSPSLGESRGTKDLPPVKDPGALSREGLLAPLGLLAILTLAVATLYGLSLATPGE
Procedure, shortened: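 Fluorescence rises as enzyme degrades a quenched TEX615-labelled dsDNA substrate (60 nM) in 50 mM Tris, 150 mM NaCl, 5 mM MgCl2, pH 7.4. Full-length His-Tev-tagged human TREX1, 4 pM, sits with compound 4 hours at 25° C before substrate; reaction 18 hours, stopped with EDTA.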

full length mouse TREX1 = biological target: T2, full length mouse TREX1 (Mus musculus, UniProt Q91XB0); experiment: mTREX1 Biochemical Assay (fluorescence, dsDNA substrate degradation); conditions: biochemical, read-out: mTREX1 IC50
T2 construct: N-terminally His-Tev tagged full length mouse TREX1; made in house; host or cells: E. coli
T2 sequence (Q91XB0 1-314): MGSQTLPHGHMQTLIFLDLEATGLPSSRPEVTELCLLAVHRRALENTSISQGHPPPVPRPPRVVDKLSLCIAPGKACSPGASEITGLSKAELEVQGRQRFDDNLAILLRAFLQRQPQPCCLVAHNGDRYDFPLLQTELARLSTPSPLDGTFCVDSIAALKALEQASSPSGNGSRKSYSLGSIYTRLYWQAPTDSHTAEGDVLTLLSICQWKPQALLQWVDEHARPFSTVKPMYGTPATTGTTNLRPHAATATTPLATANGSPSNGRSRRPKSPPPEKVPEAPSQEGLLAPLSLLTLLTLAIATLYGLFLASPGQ
Procedure, shortened: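 Reaction run 18 h at 25° C. with 60 nM TEX615/quencher-labelled dsDNA and 6 pM mouse TREX1 in Tris buffer (pH 7.4, 5 mM MgCl2, 1.0% DMSO), enzyme having sat 4 h with compound across 10 concentrations. EDTA quench; substrate degradation measured as fluorescence increase.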

[1] = biological target: T3, human TREX2 (residues M44-A279) (Homo sapiens, UniProt Q9BQ50); experiment: hTREX2 Biochemical Assay (fluorescence, dsDNA substrate degradation); conditions: biochemical selectivity for hTREX1 vs hTREX2
T3 construct: human TREX2 (residues M44-A279, expressed in E. coli); made in house; host or cells: E. coli
T3 sequence (Q9BQ50 44-279 isoform Q9BQ50-1): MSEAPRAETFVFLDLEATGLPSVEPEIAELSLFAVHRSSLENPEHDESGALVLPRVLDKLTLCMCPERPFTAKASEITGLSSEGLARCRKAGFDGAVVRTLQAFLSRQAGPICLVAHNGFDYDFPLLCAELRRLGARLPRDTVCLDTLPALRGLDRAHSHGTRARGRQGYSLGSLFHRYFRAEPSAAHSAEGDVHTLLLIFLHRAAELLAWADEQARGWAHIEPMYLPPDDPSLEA
Procedure, shortened: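 Fluorogenic dsDNA degradation read at 615 nm (570 nm excitation) after EDTA quench. Final 60 nM substrate, 50 pM His-Tev-tagged enzyme, 5 mM MgCl2, pH 7.4, 1.0% DMSO; 4 h compound–enzyme preincubation then 18 h reaction, both 25 °C; 10-point titration.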

hTREX1 = biological target: T4, hTREX1 (Homo sapiens, UniProt Q9NSU2); experiment: hTREX1 HCT116 Cell Assay (HCT116 dual cells, Lucia luciferase reporter of Type I interferon induction); type: cell-based; conditions: TREX1i 4 h before pBR322/BstNI transfection, read after 48 h
T4 construct: host or cells: HCT116 dual cells
T4 sequence (Q9NSU2 1-314): T1 sequence (Q9NSU2 1-314)
Procedure, shortened: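 Type I interferon induction read as secreted Lucia luciferase 48 h after transfecting pBR322/BstNI digest (1 ug/mL, 100 ng/well) into HCT116 dual reporter cells. Compound added 4 h before transfection at up to 0.1% DMSO; cells in DMEM/10% FBS/25 mM HEPES at 37 °C.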

Row | SMILES | IC50 (full length human TREX1) [nM] | IC50 (full length mouse TREX1) [nM] | hTREX1 vs hTREX2 selectivity [1] | IC50 (hTREX1) [nM]
1 | Cc1n[nH]c(C)c1C(c1ccccc1C#N)C(C)c1nc(C(=O)Nc2cnoc2)c(O)c(=O)n1C (single isomer, unassigned) [Example 95 D1E2] | > 10 | > 10 | A (A = <25 fold selective for hTREX1) | > 100
2 | COCCn1cc(C(c2cc(F)ccc2C#N)C(C)c2nc(C(=O)Nc3cnoc3)c(O)c(=O)n2C)c(C)n1 (single isomer, unassigned) [Example 103 D1E2] | < 1 | < 1 | C (C = >50 fold selective for hTREX1) | 10 to 100
3 | CC(c1nc(C(=O)Nc2cnoc2)c(O)c(=O)n1C)C(c1cnn(CCN2CCOCC2)c1)c1ccccc1C#N (single isomer, unassigned) [Example 20 D1E1] | < 1 | 1 to 10 | C (C = >50 fold selective for hTREX1) | 10 to 100
4 | CC(c1nc(C(=O)Nc2cnoc2)c(O)c(=O)n1C)C(c1ccccc1Cl)n1cc(C(F)(F)F)cn1 (single isomer, unassigned) [Example 139 D1E1] | 1 to 10 | 1 to 10 | A (A = <25 fold selective for hTREX1) | > 100
5 | Cc1cc(C)n(C(c2ccccc2C#N)C(C)c2nc(C(=O)Nc3cnoc3)c(O)c(=O)n2C)n1 (single isomer, unassigned) [Example 137 D1E1] | < 1 | 1 to 10 | B (B = 25 to 50-fold selective for hTREX1) | < 10
6 | CC(c1nc(C(=O)Nc2cnoc2)c(O)c(=O)n1C)C(c1nnn(C)n1)c1ccccc1C#N (single isomer, unassigned) [Example 79 D1E2] | 1 to 10 | > 10 | B (B = 25 to 50-fold selective for hTREX1) | > 100
7 | COCCn1cc(C(c2cc(F)ccc2Cl)C(C)c2nc(C(=O)Nc3cnoc3)c(O)c(=O)n2C)cn1 (single isomer, unassigned) [Example 97 D1E1] | 1 to 10 | 1 to 10 | C (C = >50 fold selective for hTREX1) | > 100
8 | CC(c1nc(C(=O)Nc2cnoc2)c(O)c(=O)n1C)C(c1cnn(C(F)(F)F)c1)c1ccccc1C#N (single isomer, unassigned) [Example 151 D2E1] | 1 to 10 | > 10 | B (B = 25 to 50-fold selective for hTREX1) | > 100
9 | CC(c1nc(C(=O)Nc2cnoc2)c(O)c(=O)n1C)C(c1cnc(C(F)(F)F)cn1)c1ccccc1C#N (single isomer, unassigned) [Example 118 D1E1] | 1 to 10 | 1 to 10 | B (B = 25 to 50-fold selective for hTREX1) | 10 to 100
10 | Cc1nn(C)c(C)c1C(c1cc(F)ccc1C#N)C(C)c1nc(C(=O)Nc2cnoc2)c(O)c(=O)n1C (single isomer, unassigned) [Example 109 D1E1] | < 1 | 1 to 10 | B (B = 25 to 50-fold selective for hTREX1) | 10 to 100
11 | COCCn1cc(C(c2ccccc2C#N)C(C)c2nc(C(=O)Nc3cnoc3)c(O)c(=O)n2C)cn1 (single isomer, unassigned) [Example 9 D2E1] | 1 to 10 | > 10 | C (C = >50 fold selective for hTREX1) | > 100
12 | CC(c1nc(C(=O)Nc2cnoc2)c(O)c(=O)n1C)C(c1ccccc1Cl)c1cnn(C)c1C#N (single isomer, unassigned) [Example 96 D1E1] | < 1 | 1 to 10 | A (A = <25 fold selective for hTREX1) | > 100
13 | CC(c1nc(C(=O)Nc2cnoc2)c(O)c(=O)n1C)C(c1cnn(CC2COC2)c1)c1ccccc1Cl (single isomer, unassigned) [Example 88 D1E1] | < 1 | 1 to 10 | A (A = <25 fold selective for hTREX1) | > 100
14 | CC(c1nc(C(=O)Nc2cnoc2)c(O)c(=O)n1C)C(c1cnn(C(C)(C)CC#N)c1)c1cc(F)ccc1Cl (single isomer, unassigned) [Example 100 D1E1] | 1 to 10 | 1 to 10 | A (A = <25 fold selective for hTREX1) | > 100
15 | CC(c1nc(C(=O)Nc2cnoc2)c(O)c(=O)n1C)C(c1ccccc1Cl)c1nncn1C (single isomer, unassigned) [Example 152 D1E1] | > 10 | > 10 | B (B = 25 to 50-fold selective for hTREX1) | > 100
16 | Cc1cc(C(c2cc(F)ccc2C#N)C(C)c2nc(C(=O)Nc3cnoc3)c(O)c(=O)n2C)nn1C (single isomer, unassigned) [Example 112 D2E1] | 1 to 10 | > 10 | A (A = <25 fold selective for hTREX1) | > 100
17 | CC(c1nc(C(=O)Nc2cnoc2)c(O)c(=O)n1C)C(c1cnn(CCOC(F)(F)F)c1)c1cc(F)ccc1Cl (single isomer, unassigned) [Example 98 D1E1] | 1 to 10 | 1 to 10 | B (B = 25 to 50-fold selective for hTREX1) | > 100
18 | CC(c1nc(C(=O)Nc2cnoc2)c(O)c(=O)n1C)C(c1cnn(C)c1)c1ccccc1Cl (single isomer, unassigned) [Example 77 D1E2] | > 10 | > 10 | A (A = <25 fold selective for hTREX1) | > 100
19 | CC(c1nc(C(=O)Nc2cnoc2)c(O)c(=O)n1C)C(c1cnn(C)c1)c1ccccc1Cl (single isomer, unassigned) [Example 77 D2E1] | > 10 | > 10 | A (A = <25 fold selective for hTREX1) | > 100
20 | COCCn1cc(C(c2ccccc2C#N)C(C)c2nc(C(=O)Nc3cnoc3)c(O)c(=O)n2C)c(C)n1 (single isomer, unassigned) [Example 71 D1E1] | < 1 | < 1 | C (C = >50 fold selective for hTREX1) | < 10
21 | CC(c1nc(C(=O)Nc2cnoc2)c(O)c(=O)n1C)C(c1cnn(C)c1)c1ccccc1C#N (single isomer, unassigned) [Example 2 D2E2] | > 10 | > 10 | A (A = <25 fold selective for hTREX1) | > 100
22 | CC(c1nc(C(=O)Nc2cnoc2)c(O)c(=O)n1C)C(c1cnn(C(C)C)c1)c1ccccc1C#N (single isomer, unassigned) [Example 105 D2E1] | 1 to 10 | > 10 | A (A = <25 fold selective for hTREX1) | > 100
23 | Cc1ncc(C(c2ccccc2C#N)C(C)c2nc(C(=O)Nc3cnoc3)c(O)c(=O)n2C)nc1C (single isomer, unassigned) [Example 81 D2E1] | 1 to 10 | > 10 | B (B = 25 to 50-fold selective for hTREX1) | > 100
24 | Cc1cnc(C)c(C(c2ccccc2C#N)C(C)c2nc(C(=O)Nc3cnoc3)c(O)c(=O)n2C)n1 (single isomer, unassigned) [Example 82 D1E1] | < 1 | 1 to 10 | C (C = >50 fold selective for hTREX1) | < 10

Reference: patent US20240246946A1, “MODULATORS OF TREX1” (Constellation Pharmaceuticals, Inc., priority 2021, published 2024)
